Structures can show the parent of a compound that is named as a salt.

The target of this test is ATR kinase (Homo sapiens (Human), UniProt Q13535). Description: ATR enzyme activity inhibition assay (HTRF). It is filed as biochemical. To be noted: p53 substrate, full-length ATR enzyme. As to the method: The inhibitory ability to ATR kinase for selected compounds was tested by the HTRF (Homogeneous Time-Resolved Fluorescence). In the reaction system, After the substrate p53 is phosphorylated by ATR, the anti-phospho-p53-Eu that serves as an energy donor and specifically binds to the phosphorylation site on p53 is added. Then, the anti-GST-d2 as an energy acceptor that specifically binds to the GST tag carried on p53 is added. […] The IC50 of the sample to be tested can be obtained through graphing and calculation.
Chain of ATR kinase (Q13535 whole entry): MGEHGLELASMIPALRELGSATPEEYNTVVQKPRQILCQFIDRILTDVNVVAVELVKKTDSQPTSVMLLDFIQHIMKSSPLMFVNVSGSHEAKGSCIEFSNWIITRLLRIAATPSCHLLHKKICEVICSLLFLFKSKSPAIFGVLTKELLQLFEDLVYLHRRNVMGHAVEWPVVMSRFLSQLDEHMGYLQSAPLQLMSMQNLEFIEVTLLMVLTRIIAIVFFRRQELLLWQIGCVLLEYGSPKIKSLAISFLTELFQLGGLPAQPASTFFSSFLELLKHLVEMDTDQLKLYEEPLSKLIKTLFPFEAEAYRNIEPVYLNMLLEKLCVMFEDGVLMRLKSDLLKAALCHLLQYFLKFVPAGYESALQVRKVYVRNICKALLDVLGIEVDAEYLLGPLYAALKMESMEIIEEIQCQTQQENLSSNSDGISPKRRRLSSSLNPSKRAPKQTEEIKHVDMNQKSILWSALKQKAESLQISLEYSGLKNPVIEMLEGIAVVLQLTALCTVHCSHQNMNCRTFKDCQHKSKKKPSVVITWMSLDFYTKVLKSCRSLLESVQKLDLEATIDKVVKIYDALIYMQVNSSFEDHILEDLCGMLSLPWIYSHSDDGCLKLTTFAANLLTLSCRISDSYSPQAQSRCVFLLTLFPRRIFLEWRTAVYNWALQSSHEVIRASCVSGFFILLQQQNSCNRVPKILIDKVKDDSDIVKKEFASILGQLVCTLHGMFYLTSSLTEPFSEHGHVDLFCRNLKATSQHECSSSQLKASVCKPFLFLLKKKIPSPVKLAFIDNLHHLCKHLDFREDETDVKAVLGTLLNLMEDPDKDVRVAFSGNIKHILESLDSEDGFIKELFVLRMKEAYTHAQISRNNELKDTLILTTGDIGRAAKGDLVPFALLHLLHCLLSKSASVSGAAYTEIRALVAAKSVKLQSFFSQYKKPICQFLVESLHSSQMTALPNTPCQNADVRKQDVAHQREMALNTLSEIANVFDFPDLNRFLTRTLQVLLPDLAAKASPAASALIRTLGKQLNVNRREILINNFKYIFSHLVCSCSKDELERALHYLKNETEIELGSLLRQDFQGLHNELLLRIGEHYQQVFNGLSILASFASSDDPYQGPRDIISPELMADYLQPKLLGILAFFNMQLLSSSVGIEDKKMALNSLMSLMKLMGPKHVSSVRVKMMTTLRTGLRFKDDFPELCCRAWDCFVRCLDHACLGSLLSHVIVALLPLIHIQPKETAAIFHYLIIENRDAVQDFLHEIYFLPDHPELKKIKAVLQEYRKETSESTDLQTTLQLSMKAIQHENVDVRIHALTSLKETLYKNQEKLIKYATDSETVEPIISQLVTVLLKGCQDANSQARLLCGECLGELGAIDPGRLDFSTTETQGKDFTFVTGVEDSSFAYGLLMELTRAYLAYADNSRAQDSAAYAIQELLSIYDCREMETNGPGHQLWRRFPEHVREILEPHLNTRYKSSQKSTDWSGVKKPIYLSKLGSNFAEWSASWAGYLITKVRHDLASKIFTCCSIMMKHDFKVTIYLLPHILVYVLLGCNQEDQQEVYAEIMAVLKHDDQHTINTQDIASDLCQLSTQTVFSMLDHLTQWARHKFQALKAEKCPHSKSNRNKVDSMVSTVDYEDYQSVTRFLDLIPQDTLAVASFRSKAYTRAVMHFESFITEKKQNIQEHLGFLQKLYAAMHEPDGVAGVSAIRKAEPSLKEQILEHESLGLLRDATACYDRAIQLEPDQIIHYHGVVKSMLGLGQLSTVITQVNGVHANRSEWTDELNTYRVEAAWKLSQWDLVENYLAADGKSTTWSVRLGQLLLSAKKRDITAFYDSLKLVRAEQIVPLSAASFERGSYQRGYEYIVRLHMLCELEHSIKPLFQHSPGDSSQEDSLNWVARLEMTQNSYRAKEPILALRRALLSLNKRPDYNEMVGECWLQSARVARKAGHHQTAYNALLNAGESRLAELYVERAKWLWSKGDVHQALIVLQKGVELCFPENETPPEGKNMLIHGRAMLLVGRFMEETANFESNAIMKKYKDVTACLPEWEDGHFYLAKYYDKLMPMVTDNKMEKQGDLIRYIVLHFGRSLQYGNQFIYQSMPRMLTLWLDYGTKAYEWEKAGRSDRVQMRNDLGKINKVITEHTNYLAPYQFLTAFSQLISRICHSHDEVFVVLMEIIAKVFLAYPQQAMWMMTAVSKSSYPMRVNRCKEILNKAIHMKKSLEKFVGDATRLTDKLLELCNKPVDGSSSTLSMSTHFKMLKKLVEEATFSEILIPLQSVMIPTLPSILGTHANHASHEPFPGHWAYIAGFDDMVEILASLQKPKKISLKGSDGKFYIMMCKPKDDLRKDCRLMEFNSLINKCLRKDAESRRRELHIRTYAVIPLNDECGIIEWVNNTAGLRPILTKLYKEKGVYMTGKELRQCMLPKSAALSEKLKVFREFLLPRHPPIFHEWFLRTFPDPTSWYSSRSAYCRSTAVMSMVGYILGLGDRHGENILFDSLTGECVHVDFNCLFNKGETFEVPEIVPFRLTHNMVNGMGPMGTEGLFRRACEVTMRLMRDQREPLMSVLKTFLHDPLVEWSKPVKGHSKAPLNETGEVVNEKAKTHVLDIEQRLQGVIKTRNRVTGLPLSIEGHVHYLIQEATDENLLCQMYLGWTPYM
Chain of ATR kinase (Q8WXE1 whole entry partner): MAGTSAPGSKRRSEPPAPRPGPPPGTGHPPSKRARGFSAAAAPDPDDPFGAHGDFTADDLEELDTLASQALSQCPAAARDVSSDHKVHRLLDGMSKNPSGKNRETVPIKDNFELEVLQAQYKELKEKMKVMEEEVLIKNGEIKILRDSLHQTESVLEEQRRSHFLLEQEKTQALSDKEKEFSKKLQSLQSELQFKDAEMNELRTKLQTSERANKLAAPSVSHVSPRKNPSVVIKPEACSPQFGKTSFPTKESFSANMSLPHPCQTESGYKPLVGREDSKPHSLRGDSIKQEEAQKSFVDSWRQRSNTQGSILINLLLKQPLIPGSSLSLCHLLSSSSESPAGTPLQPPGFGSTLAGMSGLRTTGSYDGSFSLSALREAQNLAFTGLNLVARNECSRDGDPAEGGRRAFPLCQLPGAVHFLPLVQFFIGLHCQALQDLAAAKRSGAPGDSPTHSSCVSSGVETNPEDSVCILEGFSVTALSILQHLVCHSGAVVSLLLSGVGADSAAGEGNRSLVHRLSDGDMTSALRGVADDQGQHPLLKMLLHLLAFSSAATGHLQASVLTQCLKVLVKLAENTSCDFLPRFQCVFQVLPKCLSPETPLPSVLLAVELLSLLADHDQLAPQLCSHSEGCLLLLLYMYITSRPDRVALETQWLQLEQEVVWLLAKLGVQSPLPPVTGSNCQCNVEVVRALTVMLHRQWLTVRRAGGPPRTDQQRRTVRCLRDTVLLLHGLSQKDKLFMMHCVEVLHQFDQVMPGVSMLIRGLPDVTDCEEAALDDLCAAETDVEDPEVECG
Prepare various buffer systems required for the experiment: • 1. […] Prepare detection buffer: Dilute each of the anti-phospho-p53-Eu cryptate (Cisbio, Cat #61P08KA) and anti-GST-d2 (Cisbio, Cat #61GSTDLB) to 1 unit using HTRF detection buffer (Cisbio, Cat #62SDBRDF).
Powdered compounds were dissolved in DMSO to from a stock solution at a concentration of 10 mM. The solution of compounds to be tested at a concentration of […] was performed a 3-fold dilution for 10 concentrations with DMSO. […] 5 μL of ATR was added to each well accordingly. Each well is incubated at 25° C. for 10 min, added with 5 μL of reaction substrate, incubated at 25° C. for 90 min and added with 10 μL of detection solution. […] The inhibition curves of the compounds were made by the four-parameter […] regression equation of XLfit software, and the inhibition rates of the compounds were calculated.
Usually IC50 stands for the concentration needed to halve the response being measured. The molecule `CC(C)S(=O)(=O)c1ccc(-c2cnc(N)c(-c3cc(-c4ccc(CNC(=N)N)cc4)no3)n2)cc1` [Example 1, 1-(4-(5-(3-amino-6-(4-(isopropylsulfonyl)phenyl)pyrazin-2-yl)isoxazol-3-yl)benzyl)guanidine dihydrochloride] came in with an IC50 of 0.97 nM.

The molecule `CNCc1ccc(-c2cc(-c3nc(-c4ccc(S(=N)(=O)C(C)C)cc4)cnc3N)on2)cc1` (stereo not shown) [Example 2, (4-(5-amino-6-(3-(4-((methylamino)methyl)phenyl)isoxazol-5-yl)pyrazin-2-yl)phenyl)(imino)(isopropyl)-λ^6-sulfoxide] had an IC50 of 2.79 nM.

`CC(C)S(=O)(=O)c1ccc(-c2cnc(N)c(-c3cc(-c4ccc5[nH]nnc5c4)no3)n2)cc1` [Example 3, 3-(3-(1H-benzo[d][1,2,3]triazol-5-yl)isoxazol-5-yl)-5-(4-(isopropylsulfonyl)phenyl)pyrazin-2-amine] gave an IC50 of 1.6 nM.

As for `CC(C)S(=O)(=O)c1ccc(-c2cnc(N)c(-c3cc(-c4ccc(CNC(=N)N)cc4F)no3)n2)cc1` [Example 4, 1-(4-(5-(3-amino-6-(4-isopropylsulfonyl)phenyl)pyrazin-2-yl)isoxazol-3-yl)-3-fluorobenzyl)guanidine dihydrochloride], the IC50 worked out at 0.83 nM.

For `CC(C)S(=O)(=O)c1ccc(-c2cnc(N)c(-c3cc(-c4ccc(CNC(=O)NC5CC5)cc4)no3)n2)cc1` [Example 5, 1-(4-(5-(3-amino-6-(4-(isopropylsulfonyl)phenyl)pyrazin-2-yl)isoxazol-3-yl)benzyl)-3-cyclopropylurea], the IC50 was determined as 2.32 nM.

In turn, `CCNC(=O)NCc1ccc(-c2cc(-c3nc(-c4ccc(S(=O)(=O)C(C)C)cc4)cnc3N)on2)cc1` [Example 6, 1-(4-(5-(3-amino-6-(4-(isopropylsulfonyl)phenyl)pyrazin-2-yl)isoxazol-3-yl)benzyl)-3-ethylurea] displayed an IC50 of 2.9 nM.

The molecule `CNC(=O)NCc1ccc(-c2cc(-c3nc(-c4ccc(S(=O)(=O)C(C)C)cc4)cnc3N)on2)cc1` [Example 7, 1-(4-(5-(3-amino-6-(4-(isopropylsulfonyl)phenyl)pyrazin-2-yl)isoxazol-3-yl)benzyl)-3-methylurea] had an IC50 of 1.04 nM.

In the case of `CC(C)S(=O)(=O)c1ccc(-c2cnc(N)c(-c3cc(-c4ccc(CNS(N)(=O)=O)cc4)no3)n2)cc1` [Example 8, 3-(3-(4-((aminosulfonyl)aminomethylene)phenyl)isoxazol-5-yl)-5-(4-(isopropylsulfonyl)phenyl)pyrazin-2-amine], inhibition was half-maximal at 3.64 nM (IC50).

In turn, `CN(C)S(=O)(=O)c1ccc(-c2cnc(N)c(-c3cc(-c4ccc(CNC(=N)N)cc4)no3)n2)cc1` [Example 10, 4-(5-amino-6-(3-(4-(guanidinomethyl)phenyl)isoxazol-5-yl)pyrazin-2-yl)-N,N-dimethylbenzenesulfonamide dihydrochloride] displayed an IC50 of 1.75 nM.

`CC(C)S(=O)(=O)c1ccc(-c2cnc(N)c(-c3cc(-c4c(F)cc(CNC(=N)N)cc4F)no3)n2)cc1` [Example 11, 1-(4-(5-(3-amino-6-(4-(isopropylsulfonyl)phenyl)pyrazin-2-yl)isoxazol-3-yl)-3,5-difluorobenzyl)guanidine dihydrochloride] had an IC50 of 0.82 nM.

`CN=S(=O)(c1ccc(-c2cnc(N)c(-c3cc(-c4ccc(CNC(=N)N)cc4)no3)n2)cc1)C(C)C` (stereo not shown) [Example 13, 1-(4-(5-(3-amino-6-(4-(N-methylpropan-2-yl-sulfonimido)phenyl)pyrazin-2-yl)isoxazol-3-yl)benzyl)guanidine dihydrochloride]: the IC50 was 1.68 nM.

Turning to `CNC(=O)Nc1ccc(-c2cc(-c3nc(-c4ccc(S(=O)(=O)C(C)C)cc4)cnc3N)on2)cc1` [Example 14, 1-(4-(5-(3-amino-6-(4-(isopropylsulfonyl)phenyl)pyrazin-2-yl)isoxazol-3-yl)phenyl)-3-methylurea], the IC50 is 1.42 nM.

The molecule `CC(C)S(=O)(=O)c1ccc(-c2cnc(N)c(-c3cc(-c4ccc(NC(N)=O)cc4)no3)n2)cc1` [Example 15, 1-(4-(5-(3-amino-6-(4-(isopropylsulfonyl)phenyl)pyrazin-2-yl)isoxazol-3-yl)phenyl)urea] gave an IC50 of 2 nM.

Take `CC(C)S(=O)(=O)c1ccc(-c2cnc(N)c(-c3cc(-c4ccc(NC(=N)N)cc4)no3)n2)cc1` [Example 16, 1-(4-(5-(3-amino-6-(4-(isopropylsulfonyl)phenyl)pyrazin-2-yl)isoxazol-3-yl)phenyl)guanidine]: the IC50 stood at 9.74 nM.

In the case of `CNC(=N)Nc1ccc(-c2cc(-c3nc(-c4ccc(S(=O)(=O)C(C)C)cc4)cnc3N)on2)cc1` [Example 17, 1-(4-(5-(3-amino-6-(4-(isopropylsulfonyl)phenyl)pyrazin-2-yl)isoxazol-3-yl)phenyl)-3-methylguanidine dihydrochloride], the IC50 worked out at 0.93 nM.

`CCNC(=N)Nc1ccc(-c2cc(-c3nc(-c4ccc(S(=O)(=O)C(C)C)cc4)cnc3N)on2)cc1` [Example 18, 1-(4-(5-(3-amino-6-(4-(isopropylsulfonyl)phenyl)pyrazin-2-yl)isoxazol-3-yl)phenyl)-3-ethylguanidine dihydrochloride] showed an IC50 of 1.16 nM.

`CNC(=N)Nc1ccc(-c2cc(-c3nc(-c4ccc(S(=O)(=O)C(C)C)cc4)cnc3N)on2)nc1` [Example 19, 1-(6-(5-(3-amino-6-(4-(isopropylsulfonyl)phenyl)pyrazin-2-yl)isoxazol-3-yl)pyridin-3-yl)-3-methylguanidine dihydrochloride] registered an IC50 of 1.26 nM.

Molecule `CNC(=N)Nc1ccc(-c2cc(-c3nc(-c4ccc(S(=O)(=O)C(C)C)cc4)cnc3N)on2)c(F)c1` [Example 20, 1-(4-(5-(3-amino-6-(4-(isopropylsulfonyl)phenyl)pyrazin-2-yl)isoxazol-3-yl)-3-fluorophenyl)-3-methylguanidine dihydrochloride] came in with an IC50 of 1.81 nM.

In turn, `CC(C)S(=O)(=O)c1ccc(-c2cnc(N)c(-c3cc(-c4ccc5[nH]c(=O)[nH]c5c4)no3)n2)cc1` [Example 21, 5-(5-(3-amino-6-(4-(isopropylsulfonyl)phenyl)pyrazin-2-yl)isoxazol-3-yl)-1,3-dihydro-2H-benzo[d]imidazol-2-one] showed an IC50 of 1.31 nM.

In turn, `CC(C)S(=N)(=O)c1ccc(-c2cnc(N)c(-c3cc(-c4ccc5[nH]c(=O)[nH]c5c4)no3)n2)cc1` (stereo not shown) [Example 22, 5-(5-(3-amino-6-(4-(propan-2-ylsulfonimido)phenyl)pyrazin-2-yl)isoxazol-3-yl)-1,3-dihydro-benzimidazol-2-one dihydrochloride] returned an IC50 of 1.21 nM.

In turn, `N=C(N)NCc1ccc(-c2cc(-c3nc(-c4ccc(S(=O)(=O)C5CC5)cc4)cnc3N)on2)cc1` [Example 23, 1-(4-(5-(3-amino-6-(4-(cyclopropylsulfonyl)phenyl)pyrazin-2-yl)isoxazol-3-yl)benzyl)guanidine dihydrochloride] registered an IC50 of 0.7 nM.

Molecule `CC(C)S(=O)(=O)c1ccc(-c2cnc(N)c(-c3cc(-c4ccc(CNC(=N)N)c(F)c4)no3)n2)cc1` [Example 24, 1-(4-(5-(3-amino-6-(4-(isopropylsulfonyl)phenyl)pyrazin-2-yl)isoxazol-3-yl)-2-fluorobenzyl)guanidine dihydrochloride] yielded an IC50 of 1.08 nM.

For the origin of these results see patent US20250026742A1 (SUZHOU ARK BIOPHARMACEUTICAL CO., LTD., priority 2021, published 2025).
